Measured values: the supplement of paper PMC10307832

How the values were obtained:
Experiment in all cases: relative viability (nuclei count vs DMSO), 5 days (fraction); higher = more cells survive
BAY61-3606 + Palbociclib = compound: COC1=C(C=C(C=C1)C2=CC3=NC=CN3C(=N2)NC4=C(C=CC=N4)C(=O)N)OC [BAY61-3606] + CC(=O)c1c(C)c2cnc(Nc3ccc(N4CCNCC4)cn3)nc2n(C2CCCC2)c1=O [Palbociclib] (partner 0.5 µM)
Outline: (§1)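 Relative viability was taken as the ratio of nuclei in treated wells to nuclei in vehicle wells. Lung cancer cell lines in 1536-well plates received compounds by pin tool one day after seeding, either one drug alone or a fixed anchor-drug dose plus five library-drug doses (not always all listed) in √10 steps. Nuclei were counted on 4× images after 5 days of treatment, and values are medians of duplicate plates.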

Doxorubicin + Decitabine = compound: COc1cccc2c1C(=O)c1c(O)c3c(c(O)c1C2=O)C[C@@](O)(C(=O)CO)C[C@@H]3O[C@H]1C[C@H](N)[C@H](O)[C@H](C)O1 [Doxorubicin] + Nc1ncn([C@H]2C[C@H](O)[C@@H](CO)O2)c(=O)n1 [Decitabine] (partner 2 µM)
Outline: as §1

BAY61-3606 + Pemetrexed = compound: COC1=C(C=C(C=C1)C2=CC3=NC=CN3C(=N2)NC4=C(C=CC=N4)C(=O)N)OC [BAY61-3606] + Nc1nc2[nH]cc(CCc3ccc(C(=O)N[C@@H](CCC(=O)O)C(=O)O)cc3)c2c(=O)[nH]1 [Pemetrexed] (partner 0.2 µM)
Outline: as §1

Doxorubicin + Alpelisib = compound: COc1cccc2c1C(=O)c1c(O)c3c(c(O)c1C2=O)C[C@@](O)(C(=O)CO)C[C@@H]3O[C@H]1C[C@H](N)[C@H](O)[C@H](C)O1 [Doxorubicin] + Cc1nc(NC(=O)N2CCC[C@H]2C(N)=O)sc1-c1ccnc(C(C)(C)C(F)(F)F)c1 [Alpelisib] (partner 2 µM)
Outline: as §1

Cell Line | relative viability (BAY61-3606 + Palbociclib; first compound 0.02 µM) | relative viability (BAY61-3606 + Palbociclib; first compound 0.06325 µM) | relative viability (BAY61-3606 + Palbociclib; first compound 0.2 µM) | relative viability (BAY61-3606 + Palbociclib; first compound 0.6325 µM) | relative viability (BAY61-3606 + Palbociclib; first compound 2 µM) | relative viability (Doxorubicin + Decitabine; first compound 0.001 µM) | relative viability (Doxorubicin + Decitabine; first compound 0.003162 µM) | relative viability (Doxorubicin + Decitabine; first compound 0.01 µM) | relative viability (Doxorubicin + Decitabine; first compound 0.03162 µM) | relative viability (Doxorubicin + Decitabine; first compound 0.1 µM) | relative viability (BAY61-3606 + Pemetrexed; first compound 0.02 µM) | relative viability (BAY61-3606 + Pemetrexed; first compound 0.06325 µM) | relative viability (BAY61-3606 + Pemetrexed; first compound 0.2 µM) | relative viability (BAY61-3606 + Pemetrexed; first compound 0.6325 µM) | relative viability (BAY61-3606 + Pemetrexed; first compound 2 µM) | relative viability (Doxorubicin + Alpelisib; first compound 0.001 µM) | relative viability (Doxorubicin + Alpelisib; first compound 0.003162 µM) | relative viability (Doxorubicin + Alpelisib; first compound 0.01 µM) | relative viability (Doxorubicin + Alpelisib; first compound 0.03162 µM) | relative viability (Doxorubicin + Alpelisib; first compound 0.1 µM)
NCI-H1993 | 0.581 | 0.626 | 0.48 | 0.688 | 0.524 | 0.625 | 0.582 | 0.546 | 0.551 | 0.549 | 0.642 | 0.564 | 0.541 | 0.57 | 0.461 | 0.677 | 0.627 | 0.696 | 0.627 | 0.619
CAL-12T | 0.634 | 0.504 | 0.615 | 0.287 | 0.246 | – | – | – | – | – | 1.29 | 1.38 | 1.22 | 1.22 | 0.742 | 1.23 | 1.41 | 0.587 | 0.26 | 0.142
HCC-78 | 0.438 | 0.431 | 0.486 | 0.44 | 0.522 | 0.749 | 0.697 | 0.717 | 0.668 | 0.533 | 0.864 | 0.951 | 0.868 | 0.889 | 0.825 | 0.374 | 0.269 | 0.548 | 0.298 | 0.312
EKVX | 0.405 | 0.45 | 0.385 | 0.496 | 0.45 | 0.389 | 0.34 | 0.307 | 0.296 | 0.375 | 0.439 | 0.368 | 0.401 | 0.495 | 0.346 | 0.968 | 0.971 | 0.797 | 0.803 | 0.861
NCI-H1666 | 0.657 | 0.745 | 0.731 | 0.634 | 0.688 | 0.671 | 0.759 | 0.662 | 0.692 | 0.697 | 0.84 | 0.911 | 0.81 | 0.973 | 0.909 | 0.938 | 0.814 | 0.551 | 0.27 | 0.284
NCI-H2170 | 0.338 | 0.404 | 0.425 | 0.412 | 0.306 | 0.498 | 0.472 | 0.435 | 0.396 | 0.491 | 0.285 | 0.268 | 0.278 | 0.258 | 0.269 | 0.896 | 0.966 | 0.727 | 0.682 | 0.877
NCI-H1734 | 0.361 | 0.327 | 0.367 | 0.351 | 0.214 | 0.491 | 0.494 | 0.478 | 0.462 | 0.513 | 0.401 | 0.409 | 0.383 | 0.358 | 0.354 | 0.589 | 0.682 | 0.662 | 0.604 | 0.661
Calu-6 | – | – | – | – | – | – | – | – | – | – | – | – | – | – | – | 1.09 | 1.01 | 0.866 | 0.529 | 0.295
EBC-1 | – | – | – | – | – | – | – | – | – | – | – | – | – | – | – | 0.835 | 0.921 | 0.823 | 0.61 | 0.405
NCI-H596 | – | – | – | – | – | 1.97 | 1.09 | 1 | 0.86 | 1.08 | 0.454 | 0.511 | 0.534 | 0.555 | 0.486 | 0.446 | 0.537 | 0.524 | 0.446 | 0.551
A-427 | 0.484 | 0.521 | 0.544 | 0.524 | 0.479 | 0.585 | 0.625 | 0.553 | 0.456 | 0.4 | 1.05 | 1.02 | 0.992 | 0.892 | 0.908 | 1.11 | 1.09 | 1.09 | 1.09 | 1.15
NCI-H3122 | 0.159 | 0.185 | 0.226 | 0.231 | 0.189 | 0.391 | 0.514 | 0.389 | 0.384 | 0.437 | 0.208 | 0.219 | 0.211 | 0.187 | 0.201 | 0.835 | 0.776 | 0.815 | 0.782 | 0.768
NCI-H1437 | 0.338 | 0.28 | 0.312 | 0.387 | 0.315 | 0.538 | 0.616 | 0.501 | 0.417 | 0.361 | 0.333 | 0.342 | 0.33 | 0.31 | 0.346 | 1.03 | 1 | 0.94 | 0.611 | 0.257
SK-MES-1 | 0.312 | 0.311 | 0.385 | 0.393 | 0.313 | 0.353 | 0.328 | 0.261 | 0.196 | 0.194 | 1.03 | 0.909 | 0.869 | 0.88 | 0.713 | 0.956 | 0.877 | 0.819 | 0.785 | 0.573
HCC-366 | 0.44 | 0.46 | 0.324 | 0.326 | 0.255 | 0.334 | 0.35 | 0.281 | 0.309 | 0.334 | 0.187 | 0.174 | 0.181 | 0.164 | 0.165 | – | 0.348 | 0.439 | 0.369 | 0.367
NCI-H2347 | 0.444 | 0.41 | 0.449 | 0.452 | 0.436 | 0.612 | 0.71 | 0.646 | 0.539 | 0.557 | 0.429 | 0.424 | 0.438 | 0.418 | 0.403 | 0.985 | 0.935 | 0.997 | 0.899 | 1.02
IA-LM | – | – | – | – | – | – | – | – | – | – | – | – | – | – | – | 0.675 | 0.742 | 0.669 | 0.544 | 0.427
HARA | 0.262 | 0.23 | 0.268 | 0.243 | 0.306 | 0.796 | 0.425 | 0.519 | 0.507 | 0.407 | 0.25 | 0.253 | 0.236 | 0.221 | 0.238 | 0.816 | 0.845 | 0.76 | 0.782 | 0.812
